Data published in US12030875B2, “EIF4E inhibitors and uses thereof” (PIC Therapeutics, Inc., priority 2018, dated 2024).

Biological target: T1, Human eIF4E (Homo sapiens, UniProt P06730)
T1 construct: Human eIF4E (aa 28-217) with a C-terminal His-tag; made in house
Assay: Human eIF4E/4G2 binding assay (TR-FRET)
Conditions: eIF4E (aa 28-217) with biotin labeled 4G2 peptide
How it was run: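 His-tagged human eIF4E (aa 28-217), refolded from E. coli inclusion bodies, at 82.5 nM working stock; compounds in 10-point 2-fold DMSO series, preincubated 15 min at RT in 50 mM NaPi pH 6.5, 50 mM KCl, 1 mM DTT. Biotin-4G2 peptide added, 15 min, then Eu-streptavidin/APC-anti-His, 20 min; normalized 665/615 nm TR-FRET signal; IC50 by curve fit.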

T1 sequence (P06730 28-217): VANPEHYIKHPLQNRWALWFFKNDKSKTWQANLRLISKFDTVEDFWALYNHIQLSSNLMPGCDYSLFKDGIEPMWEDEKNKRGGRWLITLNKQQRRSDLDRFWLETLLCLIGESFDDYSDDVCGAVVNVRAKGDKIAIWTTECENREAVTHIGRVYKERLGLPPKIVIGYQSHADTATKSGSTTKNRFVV

With `CC(CNc1nc(-c2ccc(-c3cnco3)cc2)c(-c2cncnc2)s1)C(=O)O` (stereo not drawn) [Compound I-28] the IC50 was greater than 25 µM.

For `O=C(O)C1CCCN(c2nc(-c3ccc(-c4ccc(F)cc4)cc3)c(-c3ccccc3)s2)C1` (stereo not drawn) [Compound I-106], the IC50 was less than 5 µM.

For `O=C(O)C1(CNc2nc(-c3ccc(Oc4ccccc4)cc3)c(-c3cccnc3)s2)CC1` [Compound I-198], the IC50 was greater than 25 µM.

`CC(CC(=O)O)Nc1nc(-c2ccc(-c3ccc(F)cc3)cc2)c(-c2ccccc2)s1` (stereo not drawn) [Compound I-95] was tested, and the IC50 was 5 to 25 µM.

`O=C(O)CC1CCCN1c1nc(-c2ccc(Oc3ccccc3)cc2)c(-c2cncnc2)s1` (stereo not drawn) [Compound I-187] showed an IC50 greater than 25 µM.

Compound `O=C(O)C1(CNc2nc(-c3ccc(-c4cnco4)cc3)c(-c3ccccc3)s2)CC1` [Compound I-44] has an IC50 greater than 25 µM.

Compound `O=C(O)C1CCN(c2nc(-c3ccc(Oc4ccccc4)cc3)c(-c3cncnc3)s2)CC1` [Compound I-210] has an IC50 greater than 25 µM.

`CC(CC(=O)O)Nc1nc(-c2ccc(-c3cnco3)cc2)c(-c2ccccc2)s1` (stereo not drawn) [Compound I-22] showed an IC50 greater than 25 µM.

For `O=C(O)CCc1nc(-c2ccc(-c3ccc(F)cc3)cc2)c(C(F)(F)F)s1` [Compound I-235, 3-(4-(4′-fluorobiphenyl-4-yl)-5-(trifluoromethyl)-thiazol-2-yl)-propanoic acid], the IC50 was 5 to 25 µM.

`O=C(O)C1CC(CNc2nc(-c3ccc(-c4ccc(F)cc4)cc3)cs2)C1` (stereo not drawn) [Compound I-126] gave an IC50 greater than 25 µM.

For `CCCC(CNc1nc(-c2ccc(-c3cnco3)cc2)c(-c2cccc3[nH]ccc23)s1)C(=O)O` (stereo not drawn) [Compound I-21], the IC50 was greater than 25 µM.

With `CC(CC(=O)O)Nc1nc(-c2ccc(Oc3ccccc3)cc2)c(-c2cccnc2)s1` (stereo not drawn) [Compound I-174] the IC50 was greater than 25 µM.

`CC(CC(=O)O)Nc1nc(-c2ccc(-c3ccc(F)cc3)cc2)cs1` (stereo not drawn) [Compound I-93] was tested, and the IC50 was greater than 25 µM.

`O=C(O)C1CCN(c2nc(-c3ccc(-c4cnco4)cc3)c(-c3ccccc3)s2)CC1` [Compound I-52] was tested, and the IC50 was greater than 25 µM.

`O=C(O)C1CCN(c2nc(-c3ccc(-c4ccc(F)cc4)cc3)c(-c3ccccc3)s2)C1` (stereo not drawn) [Compound I-116] was tested, and the IC50 was less than 5 µM.

For `O=C(O)C1CCN(c2nc(-c3ccc(Oc4ccccc4)cc3)c(-c3ccccc3)s2)C1` (stereo not drawn) [Compound I-191], the IC50 was less than 5 µM.

Compound `CC(C)(CNc1nc(-c2ccc(-c3ccc(F)cc3)cc2)c(-c2cccc3[nH]ccc23)s1)C(=O)O` [Compound I-75] has an IC50 of 5 to 25 µM.

For `CC1(C(=O)O)CN(c2nc(-c3ccc(-c4ccc(F)cc4)cc3)c(-c3cccc4[nH]ccc34)s2)C1` [Compound I-86], the IC50 was 5 to 25 µM.

With `CC(CNc1nc(-c2ccc(Oc3ccccc3)cc2)c(-c2cccnc2)s1)C(=O)O` (stereo not drawn) [Compound I-179] the IC50 was greater than 25 µM.

In the case of `Cc1nc(N2CCOC(C(=O)O)C2)sc1-c1ccc(-c2ccc(F)cc2)cc1` (stereo not drawn) [Compound I-237, 4-(5-(4′-fluorobiphenyl-4-yl)-4-methylthiazol-2-yl) morpholine-2-carboxylic acid], the IC50 is reported as 5 to 25 µM.

In the case of `CCCC(CNc1nc(-c2ccc(-c3ccc(F)cc3)cc2)c(Br)s1)C(=O)O` (stereo not drawn) [Compound I-88], the IC50 is reported as 5 to 25 µM.

With `O=C(O)C1CCN(c2nc(-c3ccc(-c4cnco4)cc3)c(-c3ccccc3)s2)C1` (stereo not drawn) [Compound I-40] the IC50 was greater than 25 µM.

With `CC(CC(=O)O)Nc1nc(-c2ccc(-c3ccc(F)cc3)cc2)c(Br)s1` (stereo not drawn) [Compound I-94] the IC50 was 5 to 25 µM.

Work on `CC(CNc1nc(-c2cncnc2)c(-c2ccc(-c3ccc(F)cc3)cc2)s1)C(=O)O` (stereo not drawn) [Compound I-102] yielded an IC50 greater than 25 µM.
